Data from US20050026994A1, “Use of 2, 4diamino-3-hydroxycarboxylic acid derivatives as proteasome inhibitors” (priority 2000, published 2005).

Molecular target: T1, purified human placenta 20S proteasome (Homo sapiens, UniProt P28074)
T1 construct: purified human placenta 20S proteasome; tissue Diabetes Forschungsinstitut, Düsseldorf, Germany; host or cells: human placenta
Assay: Inhibition of the chymotrypsin-like activity of the 20S proteasome (Suc-LLVY-AMC hydrolysis, fluorescence)
Assay type: biochemical
Conditions: substrate Suc-LLVY-AMC 80 μM, 60 min preincubation at room temperature, incubation 3-24 h at 37° C.
Method: It is based on the hydrolysis of the fluorogenic peptide Suc-LLVY-AMC (Succinyl-leucine-leucine-valine-tyrosine-7-amino-4-methylcoumarin), which is cleaved exclusively at the Y-AMC bond by the 20S proteasome. Hydrolysis of this peptide is accompanied by an increase in fluorescence intensity (λex355 nm, λem460 nm) due to release of the […] that accompanies diffusion apart of the hydrolysis product Suc-LLVY.
2 μl of a 1 mM solution of a test compound in DMSO (dimethylsulfoxide, 20 μM final concentration in the well) are preincubated for 60 min at room temperature in black 96-well microtiter plates together with a mixture of 1 μl purified human placenta 20S proteasome (Diabetes Forschungsinstitut, Düsseldorf, Germany; about 100 ng proteasome, depending on the proteasome preparation) and 47 μl buffer-Ca (5 mM CaCl2, 20 mM Trs/HCl (Tris(hydroxymethyl)-amino-methane hydrochloride) pH 8.0). 3 pd of a 2.67 mM solution of Suc-LLVY-AMC (Bachem, Switzerland) in DMSO (80 μM final concentration in the well) and 47 μl buffer-Ca are mixed and added. The resulting mixture is incubated for 3-24 h at 37° C. If desired, proteolysis of the substrate can be stopped by addition of 50 μl stop solution (100 mM monochloroacetic acid, 130 mM NaOH, 100 mM acetic acid, pH=4.3). The fluorescence is monitored with a FLUOROSKAN ASCENT™ microtiter plate reader.
To each measure series two control experiments have to be carried out • 1.) 0% value: 2 μl DMSO are used in the above described assay instead of 2 μl of a 1 mM solution of a test compound in DMSO and 48 μl buffer-Ca instead of a mixture of 47 μl buffer-Ca and 1 μl purified proteasome. • 2.) 100% value: in the above described assay 2 μl DMSO are used instead of 2 μl of a 1 mM solution of the test compound in DMSO. Calculation [formula]
The IC50 value is defined as that concentration of a compound at which the remaining activity is 50%.

IC50 [µM]	Compound
26	COc1ccc(CNC(C(=O)NC(C(=O)NCc2ccc(OC)cc2O)C(C)C)C(O)C(Cc2ccccc2)NC(=O)C(NC(=O)OC(C)(C)C)C(C)(C)C)cc1 (centres unmarked) [Example 3, {1-[1-Benzyl-2-hydroxy-3-[1-(2-hydroxy-4-methoxy-benzylcarbamoyl)-2-methyl-propylcarbamoyl]-3-(4-methoxy-benzylamino)-propylcarbamoyl]-2,2-dimethyl-propyl}-carbamic acid tert-butyl ester]
5.2	COc1ccc(CNC(C(=O)NC(C(=O)NCc2ccc(OC)cc2O)C(C)C)C(O)C(Cc2ccccc2)NC(=O)C(NC(=O)OCc2ccc3ccccc3c2)C(C)(C)C)cc1 (centres unmarked) [Example 5, {1-[1-Benzyl-2-hydroxy-3-[1-(2-hydroxy-4-methoxy-benzylcarbamoyl)-2-methyl-propylcarbamoyl]-3-(4-methoxy-benzylamino)-propylcarbamoyl]-2,2-dimethyl-propyl}-carbamic acid naphthalen-2-ylmethyl ester]
2.2	COc1ccc(CNC(C(=O)NC(C(=O)NCc2ccc(OC)cc2O)C(C)C)C(O)C(Cc2ccccc2)NC(=O)C(NC(=O)OCc2ccncc2)C(C)(C)C)cc1 (centres unmarked) [Example 6, {1-[1-Benzyl-2-hydroxy-3-[1-(2-hydroxy-4-methoxy-benzylcarbamoyl)-2-methyl-propylcarbamoyl]-3-(4-methoxy-benzylamino)-propylcarbamoyl]-2,2-dimethyl-propyl}-carbamic acid pyridin-4-ylmethyl ester]
0.5	COc1ccc(CNC(C(=O)NC(C(=O)NCc2ccc(OC)cc2O)C(C)C)C(O)C(Cc2ccccc2)NC(=O)C(NC(=O)OCc2cccc(C)c2)C(C)(C)C)cc1 (centres unmarked) [Example 11, {1-[1-Benzyl-2-hydroxy-3-[1-(2-hydroxy-4-methoxy-benzylcarbamoyl)-2-methyl-propylcarbamoyl]-3-(4-methoxy-benzylamino)-propylcarbamoyl]-2,2-dimethyl-propyl}-carbamic acid 3-methylbenzyl ester]
0.6	COc1ccc(CNC(C(=O)NC(C(=O)NCc2ccc(OC)cc2O)C(C)C)C(O)C(Cc2ccccc2)NC(=O)C(NC(=O)CCc2cccc(N)c2)C(C)(C)C)cc1 (centres unmarked) [Example 12, 4-{2-[3-(3-Amino-phenyl)-propionylamino]-3,3-dimethyl-butyrylamino}-3-hydroxy-2-(4-methoxy-benzylamino)-5-phenyl-pentanoic acid [1-(2-hydroxy-4-methoxy-benzylcarbamoyl)-2-methyl-propyl]-amide]
0.6	COc1ccc(CNC(C(=O)NC(C(=O)NCc2ccc(OC)cc2O)C(C)C)C(O)C(Cc2ccccc2)NC(=O)C(NC(=O)OCc2cccc(N)c2)C(C)(C)C)cc1 (centres unmarked) [Example 13, {1-[1-Benzyl-2-hydroxy-3-[1-(2-hydroxy-4-methoxy-benzylcarbamoyl)-2-meth-propylcarbamoyl]-3-(4-methoxy-benzylamino)-propylcarbamoyl]-2,2-dimethyl-propyl}-carbamic acid 3-amino-benzyl ester]
1.1	COc1ccc(CNC(C(=O)NC(C(=O)NCc2ccc(OC)cc2O)C(C)C)C(O)C(Cc2ccccc2)NC(=O)C(NC(=O)OCc2cc(C)cc(C)c2)C(C)(C)C)cc1 (centres unmarked) [Example 14, {1-[1-Benzyl-2-hydroxy-3-[1-(2-hydroxy-4-methoxy-benzyl-carbamoyl)-2-methyl-propylcarbamoyl]-3-(4-methoxy-benzylamino)-propylcarbamoyl]-2,2-dimethyl-propyl}-carbamic acid 3,5-dimethyl-benzyl ester]
1	COc1ccc(CN[C@@H](C(=O)N[C@H](C(=O)NCc2ccc(OC)cc2O)C(C)C)[C@@H](O)[C@H](Cc2ccccc2)NC(=O)[C@@H](NC(=O)OCC2CCCCC2)C(C)(C)C)cc1 [Example 15, {(S)-1-[(1S,2S,3R)-1-Benzyl-2-hydroxy-3-[(S)-1-(2-hydroxy-4-methoxy-benzylcarbamoyl)-2-methyl-propylcarbamoyl]-3-(4-methoxy-benzylamino)-propylcarbamoyl]-2,2-dimethyl-propyl}-carbamic acid cyclohexylmethyl ester]

Further lines, the compound ahead of its results:

Compound	IC50 [µM]
COc1ccc(CN[C@@H](C(=O)N[C@H](C(=O)NCc2ccc(OC)cc2O)C(C)C)[C@@H](O)[C@H](Cc2ccccc2)NC(=O)[C@@H](NC(=O)OCc2ccccc2)C(C)(C)C)cc1 [Example 1]	0.9
COC(=O)CCC(NC(=O)C(NCc1ccc(OC)cc1)C(O)C(Cc1ccccc1)NC(=O)C(NC(=O)OCc1ccccc1)C(C)C)C(=O)NCc1ccc(OC)cc1O (centres unmarked) [Example 2, 4-[4-(2-Benzyloxycarbonylamino-3-methyl-butyrylamino)-3-hydroxy-2-(4-methoxy-benzylamino)-5-phenyl-pentanoylamino]-4-(2-hydroxy-4-methoxy-benzyl-carbomoyl)-butyric acid methyl ester]	0.4
COc1ccc(CNC(C(=O)NC(C(=O)NCc2ccc(OC)cc2O)C(C)C)C(O)C(Cc2ccccc2)NC(=O)C(NC(=O)OCc2cccc3ccccc23)C(C)(C)C)cc1 (centres unmarked) [Example 4, {1-[1-Benzyl-2-hydroxy-3-[1-(2-hydroxy-4-methoxy-benzyl-carbamoyl)-2-methyl-propylcarbamoyl]-3-(4-methoxy-benzylamino)-propylcarbamoyl]-2,2-dimethyl-propyl}-carbamic acid naphthalen-1-ylmethyl ester]	2
COc1ccc(CNC(C(=O)NC(C(=O)NCc2ccc(OC)cc2O)C(C)C)C(O)C(Cc2ccccc2)NC(=O)CNC(=O)OCc2ccccc2)cc1 (centres unmarked) [Example 7, {[1-Benzyl-2-hydroxy-3-[1-(2-hydroxy-4-methoxy-benzylcarbamoyl)-2-methyl-propylcarbamoyl]-3-(4-methoxy-benzylamino)-propylcarbamoyl]-methyl}-carbamic acid benzyl ester]	9
COc1ccc(CNC(C(=O)NC(C(=O)NCc2ccc(OC)cc2O)C(C)C)C(O)C(Cc2ccccc2)NC(=O)C(NC(=O)OCc2ccccc2)C(C)C)cc1 (centres unmarked) [Example 8, {1-[1-Benzyl-2-hydroxy-3-[1-(2-hydroxy-4-methoxy-benzylcarbamoyl)-2-methyl-propylcarbamoyl]-3-(4-methoxy-benzylamino)-propylcarbamoyl]-2-methyl-propyl}-carbamic acid benzyl ester]	3.3
COc1ccc(CNC(C(=O)NC(C(=O)NCc2ccc(OC)cc2O)C(C)C)C(O)C(Cc2ccccc2)NC(=O)C(NC(=O)Cc2cccc3ccccc23)C(C)(C)C)cc1 (centres unmarked) [Example 10, 4-[3,3-Dimethyl-2-(2-naphthalen-1-yl-acetylamino)-butyrylamino]-3-hydroxy-2-(4-methoxy-benzylamino)-5-phenyl-pentanoic acid [1-(2-hydroxy-4-methoxy-benzyl-carbamoyl)-2-methyl-propyl]-amide]	0.1
